Measurements taken from PMC11864979, “First-in-class ultralong-target-residence-time p38α inhibitors as a mitosis-targeted therapy for colorectal cancer” (Nature Cancer, 2025).
Read-outs that look alike come from different tables or passages of the source.

Legend:
Assay in all cases: selectivity profiling in a panel of 340 wild-type kinases (Reaction Biology Europe)
Format in all cases: binding
340 wild-type kinases [1] = biological target: T1, 340 wild-type kinases (Homo sapiens, UniProt Q12851)
T1 construct: purchased Reaction Biology Europe
T1 sequence (Q12851 1-820): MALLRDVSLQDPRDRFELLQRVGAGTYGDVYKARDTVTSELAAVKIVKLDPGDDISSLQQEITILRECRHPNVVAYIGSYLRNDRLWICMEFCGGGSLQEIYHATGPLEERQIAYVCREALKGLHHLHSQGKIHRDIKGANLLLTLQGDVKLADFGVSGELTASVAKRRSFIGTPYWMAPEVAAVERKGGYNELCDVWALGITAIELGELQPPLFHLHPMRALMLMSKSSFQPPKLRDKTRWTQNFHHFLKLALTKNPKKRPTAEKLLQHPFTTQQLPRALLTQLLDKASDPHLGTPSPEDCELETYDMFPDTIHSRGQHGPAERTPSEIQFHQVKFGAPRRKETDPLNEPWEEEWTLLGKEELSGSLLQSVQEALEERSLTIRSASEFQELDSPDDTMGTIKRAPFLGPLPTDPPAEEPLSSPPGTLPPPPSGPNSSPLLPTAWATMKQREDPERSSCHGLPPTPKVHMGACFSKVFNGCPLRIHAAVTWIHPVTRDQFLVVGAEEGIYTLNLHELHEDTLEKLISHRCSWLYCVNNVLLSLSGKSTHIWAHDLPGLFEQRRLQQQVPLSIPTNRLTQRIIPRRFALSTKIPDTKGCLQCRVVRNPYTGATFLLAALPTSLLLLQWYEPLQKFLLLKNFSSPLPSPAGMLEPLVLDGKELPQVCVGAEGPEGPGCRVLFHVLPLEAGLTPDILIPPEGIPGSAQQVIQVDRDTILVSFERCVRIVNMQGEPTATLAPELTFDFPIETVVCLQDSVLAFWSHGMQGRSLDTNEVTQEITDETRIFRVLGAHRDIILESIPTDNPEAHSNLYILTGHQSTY

340 wild-type kinases [2] = biological target: T2, 340 wild-type kinases (Homo sapiens, UniProt Q6XUX3)
T2 construct: purchased Reaction Biology Europe
T2 sequence (Q6XUX3 1-929): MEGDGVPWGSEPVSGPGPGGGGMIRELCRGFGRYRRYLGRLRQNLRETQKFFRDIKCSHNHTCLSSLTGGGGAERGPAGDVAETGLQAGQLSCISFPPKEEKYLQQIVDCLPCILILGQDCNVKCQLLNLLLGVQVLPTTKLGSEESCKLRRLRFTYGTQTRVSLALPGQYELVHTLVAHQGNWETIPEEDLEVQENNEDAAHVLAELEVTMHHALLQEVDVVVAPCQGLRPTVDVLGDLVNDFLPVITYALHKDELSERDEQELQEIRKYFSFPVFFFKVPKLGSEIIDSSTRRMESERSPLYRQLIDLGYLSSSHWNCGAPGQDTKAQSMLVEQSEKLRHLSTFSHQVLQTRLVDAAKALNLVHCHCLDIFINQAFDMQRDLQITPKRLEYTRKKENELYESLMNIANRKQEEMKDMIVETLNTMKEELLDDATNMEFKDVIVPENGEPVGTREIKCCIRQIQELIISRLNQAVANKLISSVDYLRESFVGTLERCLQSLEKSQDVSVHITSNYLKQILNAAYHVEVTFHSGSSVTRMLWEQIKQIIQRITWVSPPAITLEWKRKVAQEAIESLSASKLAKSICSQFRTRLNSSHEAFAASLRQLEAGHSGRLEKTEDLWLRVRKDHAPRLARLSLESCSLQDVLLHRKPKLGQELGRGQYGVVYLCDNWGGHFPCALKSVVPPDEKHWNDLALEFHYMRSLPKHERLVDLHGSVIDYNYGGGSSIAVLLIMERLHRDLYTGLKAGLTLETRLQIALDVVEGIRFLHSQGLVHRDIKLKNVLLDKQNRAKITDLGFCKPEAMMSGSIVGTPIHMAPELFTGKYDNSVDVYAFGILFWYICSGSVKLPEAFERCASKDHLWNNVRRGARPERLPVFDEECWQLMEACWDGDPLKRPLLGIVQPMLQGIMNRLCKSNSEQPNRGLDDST

340 wild-type kinases [3] = biological target: T3, 340 wild-type kinases (Homo sapiens, UniProt Q99986)
T3 construct: purchased Reaction Biology Europe
T3 sequence (Q99986 1-396): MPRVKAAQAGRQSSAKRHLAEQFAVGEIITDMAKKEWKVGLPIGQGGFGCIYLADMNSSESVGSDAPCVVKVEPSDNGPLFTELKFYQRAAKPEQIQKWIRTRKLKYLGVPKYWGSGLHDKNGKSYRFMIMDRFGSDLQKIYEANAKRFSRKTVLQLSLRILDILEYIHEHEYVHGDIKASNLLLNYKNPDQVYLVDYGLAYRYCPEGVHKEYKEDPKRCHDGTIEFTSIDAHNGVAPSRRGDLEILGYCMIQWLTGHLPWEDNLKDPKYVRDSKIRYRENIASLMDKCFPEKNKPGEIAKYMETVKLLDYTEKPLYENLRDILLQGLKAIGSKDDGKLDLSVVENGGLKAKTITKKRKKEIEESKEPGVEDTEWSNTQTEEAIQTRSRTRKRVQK

Work on `CNC(=O)c1ccc2c(c1)C(=O)c1ccc(Nc3ccc(F)c(NC(=O)C4CC4)c3)cc1CC2` [Compound 2015] yielded a remaining activity at 0.2 µM (340 wild-type kinases [1]; 0.2 µM 2015, read-out: MAP4K2 residual activity) of 109%, a remaining activity at 1 µM (340 wild-type kinases [1]; 1 µM 2015, read-out: MAP4K2 residual activity) of 104% and a remaining activity at 0.2 µM (340 wild-type kinases [1]; MAP4K2, 0.2 µM, read-out: residual activity) of 109%. For the same compound, the remaining activity at 1 µM (340 wild-type kinases [1]; MAP4K2, 1 µM, read-out: residual activity) was 104%, the remaining activity at 0.2 µM (340 wild-type kinases [2]; 0.2 µM 2015, read-out: RIPK5 residual activity) was 92.4% and the remaining activity at 1 µM (340 wild-type kinases [2]; 1 µM 2015, read-out: RIPK5 residual activity) was 88.1%. For the same compound, the remaining activity at 0.2 µM (340 wild-type kinases [2]; RIPK5, 0.2 µM, read-out: residual activity) was 92.4%, the remaining activity at 1 µM (340 wild-type kinases [2]; RIPK5, 1 µM, read-out: residual activity) was 88.1% and the remaining activity at 0.2 µM (340 wild-type kinases [3]; 0.2 µM 2015, read-out: VRK1 residual activity) was 96.8%. The remaining activity at 1 µM (340 wild-type kinases [3]; 1 µM 2015, read-out: VRK1 residual activity) was 87.2%, the remaining activity at 0.2 µM (340 wild-type kinases [3]; VRK1, 0.2 µM, read-out: residual activity) was 96.8% and the remaining activity at 1 µM (340 wild-type kinases [3]; VRK1, 1 µM, read-out: residual activity) was 87.2%.
